Results from ChEMBL document CHEMBL3991601, “The target landscape of clinical kinase drugs” (Science, 2017).
Counter-ions that a name gives are not always drawn. The source made the active and inactive calls.

Assays:
[1] = biological target: GTP-binding nuclear protein Ran (Homo sapiens, UniProt P62826)
[2] = biological target: T1, Serine/threonine-protein kinase D2 (Homo sapiens, UniProt Q9BZL6)
T1 sequence (Q9BZL6 whole entry): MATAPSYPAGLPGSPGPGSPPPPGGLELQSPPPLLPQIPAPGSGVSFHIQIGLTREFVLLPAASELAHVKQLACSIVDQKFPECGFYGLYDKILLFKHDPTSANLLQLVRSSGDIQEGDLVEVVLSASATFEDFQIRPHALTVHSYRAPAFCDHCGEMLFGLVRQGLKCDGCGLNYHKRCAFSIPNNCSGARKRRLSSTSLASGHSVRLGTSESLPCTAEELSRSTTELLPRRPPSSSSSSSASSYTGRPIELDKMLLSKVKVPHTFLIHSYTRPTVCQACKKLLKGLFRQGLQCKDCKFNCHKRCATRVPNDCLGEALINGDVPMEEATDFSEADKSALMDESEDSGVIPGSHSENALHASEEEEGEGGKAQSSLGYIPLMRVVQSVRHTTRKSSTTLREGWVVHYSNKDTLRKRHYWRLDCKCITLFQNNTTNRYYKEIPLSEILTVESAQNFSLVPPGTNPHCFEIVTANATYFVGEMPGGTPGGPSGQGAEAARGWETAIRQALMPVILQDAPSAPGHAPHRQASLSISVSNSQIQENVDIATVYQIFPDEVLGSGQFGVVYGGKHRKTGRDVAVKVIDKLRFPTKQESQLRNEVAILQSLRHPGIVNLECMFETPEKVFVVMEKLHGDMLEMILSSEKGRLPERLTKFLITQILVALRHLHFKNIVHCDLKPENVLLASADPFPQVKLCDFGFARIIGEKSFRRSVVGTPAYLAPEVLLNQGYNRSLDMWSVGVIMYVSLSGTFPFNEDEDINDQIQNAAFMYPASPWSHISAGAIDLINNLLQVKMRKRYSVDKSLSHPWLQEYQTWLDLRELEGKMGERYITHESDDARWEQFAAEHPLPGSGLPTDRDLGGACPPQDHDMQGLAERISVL

[3] = biological target: MAP/microtubule affinity-regulating kinase 3 (Homo sapiens, UniProt P27448)
[4] = biological target: T2, ATP-dependent RNA helicase DHX30 (Homo sapiens, UniProt Q7L2E3)
T2 sequence (Q7L2E3 whole entry): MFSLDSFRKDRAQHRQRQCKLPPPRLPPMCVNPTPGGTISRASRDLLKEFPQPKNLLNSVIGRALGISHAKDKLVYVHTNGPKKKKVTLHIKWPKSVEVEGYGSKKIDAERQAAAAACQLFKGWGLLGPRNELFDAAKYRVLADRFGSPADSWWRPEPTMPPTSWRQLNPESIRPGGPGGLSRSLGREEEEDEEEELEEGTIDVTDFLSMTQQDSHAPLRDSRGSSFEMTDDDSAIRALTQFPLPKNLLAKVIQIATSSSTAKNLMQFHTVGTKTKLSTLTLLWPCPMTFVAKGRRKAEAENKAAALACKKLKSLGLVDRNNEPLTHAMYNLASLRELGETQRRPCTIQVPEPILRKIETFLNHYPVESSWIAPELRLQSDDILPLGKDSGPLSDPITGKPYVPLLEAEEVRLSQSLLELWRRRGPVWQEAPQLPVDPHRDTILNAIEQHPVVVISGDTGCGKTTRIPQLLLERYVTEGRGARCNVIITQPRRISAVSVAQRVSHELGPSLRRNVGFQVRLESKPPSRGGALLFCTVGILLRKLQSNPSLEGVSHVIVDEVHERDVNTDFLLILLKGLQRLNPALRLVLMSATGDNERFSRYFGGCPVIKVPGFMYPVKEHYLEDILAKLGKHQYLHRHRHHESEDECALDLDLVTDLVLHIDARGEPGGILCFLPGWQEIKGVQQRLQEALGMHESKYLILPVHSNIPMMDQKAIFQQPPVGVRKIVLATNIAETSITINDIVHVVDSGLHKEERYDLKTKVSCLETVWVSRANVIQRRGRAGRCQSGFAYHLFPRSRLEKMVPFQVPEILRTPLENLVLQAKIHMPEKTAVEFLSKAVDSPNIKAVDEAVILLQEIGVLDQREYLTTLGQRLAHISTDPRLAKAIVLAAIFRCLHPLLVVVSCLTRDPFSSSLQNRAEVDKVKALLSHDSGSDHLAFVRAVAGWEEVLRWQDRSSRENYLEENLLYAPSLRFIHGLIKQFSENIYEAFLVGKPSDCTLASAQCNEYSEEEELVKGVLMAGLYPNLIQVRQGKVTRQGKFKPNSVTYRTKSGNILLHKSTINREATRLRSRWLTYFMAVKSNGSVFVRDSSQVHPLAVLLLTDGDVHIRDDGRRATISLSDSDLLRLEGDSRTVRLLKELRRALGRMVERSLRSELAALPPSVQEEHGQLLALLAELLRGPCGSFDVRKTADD
Also: in the data inactive means no Kd found up to 30 µM.

Chain of MAP/microtubule affinity-regulating kinase 3 (P27448 whole entry): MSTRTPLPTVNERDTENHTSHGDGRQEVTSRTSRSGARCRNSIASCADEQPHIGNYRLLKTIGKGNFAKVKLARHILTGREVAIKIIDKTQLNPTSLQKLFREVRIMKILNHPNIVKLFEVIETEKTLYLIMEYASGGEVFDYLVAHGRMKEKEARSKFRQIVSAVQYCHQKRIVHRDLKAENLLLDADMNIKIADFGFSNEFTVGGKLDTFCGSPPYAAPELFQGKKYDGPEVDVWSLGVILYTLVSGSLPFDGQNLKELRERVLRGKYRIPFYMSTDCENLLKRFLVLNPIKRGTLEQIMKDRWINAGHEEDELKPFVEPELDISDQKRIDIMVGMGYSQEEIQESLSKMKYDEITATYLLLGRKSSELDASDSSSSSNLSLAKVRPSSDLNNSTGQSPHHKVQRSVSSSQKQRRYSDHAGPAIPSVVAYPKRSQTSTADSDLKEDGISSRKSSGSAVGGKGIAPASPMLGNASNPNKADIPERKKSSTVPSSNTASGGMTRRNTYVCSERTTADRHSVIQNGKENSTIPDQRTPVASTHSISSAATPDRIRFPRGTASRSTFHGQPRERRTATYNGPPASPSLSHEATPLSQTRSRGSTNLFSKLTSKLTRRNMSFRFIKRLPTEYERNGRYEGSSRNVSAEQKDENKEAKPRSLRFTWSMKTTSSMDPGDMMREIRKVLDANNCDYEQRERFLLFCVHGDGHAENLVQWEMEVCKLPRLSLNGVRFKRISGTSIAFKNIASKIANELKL

Row | Kd [1] | Kd [2] | Kd [3] | Kd [4] | SMILES
1 | > 30 µM (inactive) | > 30 µM (inactive) | > 30 µM (inactive) | – | C[C@@H](Oc1cc(C(=O)Nc2ccc(C(=O)N3CCN(C)CC3)cc2)nnc1N)c1c(Cl)ccc(F)c1Cl
2 | > 30 µM (inactive) | 3.7 µM (active) | 58.2 µM (active) | – | C[C@H]1CNCCCN1S(=O)(=O)c1cccc2cncc(F)c12
3 | > 30 µM (inactive) | > 30 µM (inactive) | > 30 µM (inactive) | – | CCNC(=O)C#Cc1ccc2c(c1)NC(=O)/C2=C(\Nc1ccc(CN(C)C)cc1)c1ccccc1
4 | > 30 µM (inactive) | > 30 µM (inactive) | > 30 µM (inactive) | > 30 µM (inactive) | C=CC(=O)N1CCC[C@H](n2c(=O)n(-c3ccc(Oc4ccccc4)cc3)c3c(N)ncnc32)C1
5 | > 30 µM (inactive) | > 30 µM (inactive) | > 30 µM (inactive) | > 30 µM (inactive) | Cc1nc2cc(-c3nn(C(C)C)c4ncnc(N)c34)ccc2o1
6 | > 30 µM (inactive) | > 30 µM (inactive) | > 30 µM (inactive) | > 30 µM (inactive) | COCc1c(-c2ccc(NC(=O)Nc3cc(C(F)(F)F)ccc3F)c(F)c2)c2c(N)ncnn2c1CN1CCOCC1
7 | > 30 µM (inactive) | > 30 µM (inactive) | > 30 µM (inactive) | > 30 µM (inactive) | Nc1ncnc2c1c(-c1cccc(OCc3ccccc3)c1)cn2[C@H]1C[C@@H](CN2CCC2)C1 [AEW-541]
8 | > 30 µM (inactive) | – | – | > 30 µM (inactive) | COc1cc(Nc2ncc3c(n2)-c2ccc(Cl)cc2C(c2c(F)cccc2OC)=NC3)ccc1C(=O)O [ALISERTIB]
9 | > 30 µM (inactive) | > 30 µM (inactive) | > 30 µM (inactive) | – | Cc1nc(NC(=O)N2CCC[C@H]2C(N)=O)sc1-c1ccnc(C(C)(C)C(F)(F)F)c1 [ALPELISIB]
10 | > 30 µM (inactive) | 5.67 µM (active) | > 30 µM (inactive) | > 30 µM (inactive) | Cc1csc(-c2nnc(Nc3ccc(Oc4ncccc4-c4ccnc(N)n4)cc3)c3ccccc23)c1 [AMG-900]
11 | > 30 µM (inactive) | – | – | > 30 µM (inactive) | O=C(Nc1c[nH]nc1-c1nc2cc(CN3CCOCC3)ccc2[nH]1)NC1CC1 [AT-9283]
12 | > 30 µM (inactive) | > 30 µM (inactive) | > 30 µM (inactive) | > 30 µM (inactive) | C=CC(=O)Nc1cc2c(Nc3ccc(F)c(Cl)c3)ncnc2cc1C#CC(C)(C)N1CCN(C)CC1 [AV-412 FREE BASE]
13 | > 30 µM (inactive) | – | – | > 30 µM (inactive) | CNC(=O)c1ccccc1Sc1ccc2c(/C=C/c3ccccn3)n[nH]c2c1 [AXITINIB]
14 | > 30 µM (inactive) | > 30 µM (inactive) | > 30 µM (inactive) | > 30 µM (inactive) | Cc1cc(C(=O)NOCCO)c(Nc2ccc(I)cc2F)n(C)c1=O [AZD-8330]
15 | > 30 µM (inactive) | > 30 µM (inactive) | > 30 µM (inactive) | – | CCn1c(C(=O)N(C2CC2)C2CC2)cc2c3c(ncn3C)c(Nc3cc(C)n(C)n3)nc21 [BMS-911543]
16 | > 30 µM (inactive) | 1.21 µM (active) | – | > 30 µM (inactive) | CCS(=O)(=O)N1CCN(c2ccc(Nc3ncc(C(N)=O)c(NC4CC4)n3)cc2)CC1 [Cerdulatinib Hydrochloride]

Row | Kd [1] | Kd [2] | Kd [3] | Kd [4] | SMILES
17 | > 30 µM (inactive) | > 30 µM (inactive) | > 30 µM (inactive) | – | Cc1nc2cc(-n3ncc(C(=O)c4cc5ccccc5[nH]4)c3N)ccc2[nH]1 [FGFR INHIBITOR DEBIO 1347]
18 | > 30 µM (inactive) | – | – | > 30 µM (inactive) | C[C@@H](Oc1cc(-n2cnc3ccc(CN4CCN(C)CC4)cc32)sc1C(N)=O)c1ccccc1C(F)(F)F [GSK-461364]
19 | > 30 µM (inactive) | – | – | > 30 µM (inactive) | CCn1cc(-c2ccnc3[nH]c(-c4cccc(CN(C)C)c4)cc23)c(-c2ccc(NC(=O)N(C)C)cc2)n1 [GSK-1070916]
20 | > 30 µM (inactive) | 0.143 µM (active) | 3.44 µM (active) | – | CNC(=O)c1nn(C)c2c1C(C)(C)Cc1cnc(Nc3ccc(N4CCN(C)CC4)cc3)nc1-2 [MILCICLIB]
21 | > 30 µM (inactive) | > 30 µM (inactive) | > 30 µM (inactive) | – | FC(F)(F)c1ccc(/C=C/c2nc(COc3ccc(CCCCn4ccnn4)cc3)co2)cc1 [MUBRITINIB]
22 | > 30 µM (inactive) | > 30 µM (inactive) | > 30 µM (inactive) | – | COc1ncc(-c2ccc3nccc(-c4ccnnc4)c3c2)cc1NS(=O)(=O)c1ccc(F)cc1F [OMIPALISIB]
23 | > 30 µM (inactive) | – | – | > 30 µM (inactive) | Cc1[nH]c(/C=C2\C(=O)Nc3ccccc32)c(C)c1CCC(=O)O [ORANTINIB]
24 | > 30 µM (inactive) | – | – | > 30 µM (inactive) | NC(=O)c1c(OCc2c(F)cc(Br)cc2F)nsc1NC(=O)NCCCCN1CCCC1 [OSI-632]
25 | > 30 µM (inactive) | – | 0.105 µM (active) | > 30 µM (inactive) | Cc1nc(Nc2n[nH]c3c2CN(C(=O)N[C@H](CN(C)C)c2ccccc2)C3(C)C)c2sccc2n1 [PF-03758309]
26 | > 30 µM (inactive) | – | – | – | CC(=O)NCC(=O)N1[C@@H]2CC[C@H]1c1ccc(Nc3ncc(C(F)(F)F)c(NC4CCC4)n3)cc12 [PF-03814735]
27 | > 30 µM (inactive) | – | – | > 30 µM (inactive) | O=C(NOCCO)c1cc(CN2OCCCC2=O)c(F)c(F)c1Nc1ccc(I)cc1F [RO-4987655]
28 | > 30 µM (inactive) | – | – | – | N#CC[C@H](C1CCCC1)n1cc(-c2ncnc3[nH]ccc23)cn1 [RUXOLITINIB]
29 | > 30 µM (inactive) | > 30 µM (inactive) | – | – | CCS(=O)(=O)c1cccc(-c2cc(C(=O)NC3CCN(C)CC3)c(C)c3[nH]c4ncc(C)cc4c23)c1 [TAK-901]
30 | > 30 µM (inactive) | > 30 µM (inactive) | > 30 µM (inactive) | – | O=C1NC(=O)[C@@H](c2cn3c4c(cccc24)CCC3)[C@@H]1c1c[nH]c2ccccc12 [TIVANTINIB]
31 | > 30 µM (inactive) | – | – | > 30 µM (inactive) | Cn1ncc(Cl)c1-c1cc(C(=O)N[C@H](CN)Cc2ccc(F)c(F)c2)oc1Cl [UPROSERTIB]

Row | SMILES | Kd [1] | Kd [2] | Kd [3] | Kd [4]
32 | CC(=O)c1cnc2ccc(-c3cc(Cl)c(O)c(Cl)c3)nc2c1N[C@H]1CC[C@H](CN(C)C)CC1 | > 30 µM (inactive) | 0.069 µM (active) | > 30 µM (inactive) | 0.006 µM
33 | COc1cc([C@@H]2c3cc4c(cc3[C@H](O)[C@H]3COC(=O)[C@@H]23)OCO4)cc(OC)c1OC [AXL-1717] | > 30 µM (inactive) | > 30 µM (inactive) | > 30 µM (inactive) | –
34 | NC(=O)Nc1cc(-c2cccc(F)c2)sc1C(=O)N[C@H]1CCCNC1 [AZD-7762] | > 30 µM (inactive) | 1.16 µM (active) | – | > 30 µM (inactive)
35 | Cn1cc(C2=C(c3cn(C4CCN(Cc5ccccn5)CC4)c4ccccc34)C(=O)NC2=O)c2ccccc21 [ENZASTAURIN] | > 30 µM (inactive) | – | – | –
36 | O=C(Nc1cc(C(F)(F)F)cc(C(F)(F)F)c1)c1cc(Cl)ccc1O [IMD-0354] | > 30 µM (inactive) | – | > 30 µM (inactive) | –
37 | CCCCCCCCCCCCCCCCCCOP(=O)([O-])OC1CC[N+](C)(C)CC1 [PERIFOSINE] | > 30 µM (inactive) | > 30 µM (inactive) | > 30 µM (inactive) | –
